This note sets out measurements from article PMC7645381, “Development and application of a high-throughput screening assay for identification of small molecule inhibitors of the P. falciparum reticulocyte binding-like homologue 5 protein” (International Journal for Parasitology: Drugs and Drug …, 2020).

In data set [1] the target is T1, P. falciparum Rh5 (Rh5 – basigin interaction) (Plasmodium falciparum, UniProt Q8IFM5). Put plainly: biochemical. Format: binding.
The test system of another data set is P. falciparum D10. Put plainly: P. falciparum D10 growth inhibition by flow cytometry. Format: cell-based. As to conditions: Plasmodium falciparum, D10; growth inhibition by flow cytometry, 12-point dilution series, 72 h. Here is the method:
Pranlukast and selected analogues were then evaluated in a P. falciparum parasite viability assay. For this assay, we followed the procedure described by [Gamo et al. (2010)], that used lactate dehydrogenase (LDH) as a readout for parasite viability. In this assay, 3D7 parasites were incubated over 72 h in the presence of increasing concentrations of compounds. […]. For a comparison, selected compounds were incubated in the presence of P. falciparum D10 parasites for 72 h (Table 1, Fig. S14) and growth inhibition measured by flow cytometry. […].
For orientation: In flow cytometry, cells or beads pass a laser one at a time.

For another data set, the system named is HepG2 cells. Put plainly: HepG2 growth inhibition assay. The conditions noted are these: Homo sapiens, 10-point dilution series, 48 h, Cell Titre-Glo. The data set is classed as cell-based. Here is the method:
HepG2 cells were cultured in Dulbeccos modified eagle's medium (DMEM) supplemented with 10% fetal calf serum (FCS), in a humidified incubator at 37 °C and 5% CO2. Ten-point compound titration assays were performed by treating cells (1 × 10^3) for 48 h in 384 well tissue culture treated plates (Greiner). Cytotoxicity was determined using Cell Titer Glo (Promega) and calculated as a percentage using DMSO as a positive growth control and 10 μM Bortezomib as a negative growth control. EC50 values were calculated using a 4-parameter log dose, non-linear regression analysis, with sigmoidal dose response (variable slope) curve fit using Graph Pad Prism (version 6.05). 0 and 100 constraint parameters were used for curve fitting. […]

Data set [2] is described as follows: Solubility in SPR running buffer. Format: physicochemical.
In the next data set the target is T2, DCLK1 (Homo sapiens, UniProt O15075).
T2 construct: made in house
T2 sequence (O15075 372-649 limits assumed): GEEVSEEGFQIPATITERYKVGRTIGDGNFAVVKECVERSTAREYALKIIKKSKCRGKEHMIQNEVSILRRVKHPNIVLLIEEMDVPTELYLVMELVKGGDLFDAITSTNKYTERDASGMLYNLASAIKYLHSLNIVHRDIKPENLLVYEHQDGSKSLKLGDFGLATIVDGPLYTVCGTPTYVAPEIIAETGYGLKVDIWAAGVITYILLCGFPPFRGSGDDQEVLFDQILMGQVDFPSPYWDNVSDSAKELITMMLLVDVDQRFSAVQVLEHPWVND
Put plainly: Differential scanning fluorimetry of control protein DCLK1. The conditions noted are these: DSF. The data set is classed as binding. Here is the method: Doublecortin-like kinase domain 1 (DCLK1) used as a control protein in differential scanning fluorimetry experiments and was recombinantly expressed and purified according to the previously described protocol ([Patel et al., 2016]).
Differential scanning fluorimetry assays were performed as described previously ([Murphy et al., 2013], [2014a], [2014b]) using a Rotor-Gene Q PCR. Briefly, purified PfRh5 was diluted in 20 mM Tris pH 8.0, 150 mM NaCl to achieve 10 μg per reaction and assayed with the appropriate concentration of inhibitor in a total reaction volume of 25 μL. SYPRO Orange (Molecular Probes, CA) was used as a fluorescence probe and detected at 530 nm. Compounds were titrated at final concentrations ranging from 5 μM to 80 μM final. Data was transformed and plotted using GraphPad Prism. Shown data are representative means of two technical experiments.

Data set [3] concerns the target T1, P. falciparum Rh5 (Rh5 – basigin interaction). As to the kind of experiment: biochemical. Further details: AlphaScreen of Rh5 - His-tagged basigin interaction with anti-Rh5 mAb beads; inhibition of luminescence signal. The conditions noted are these: Batch Reference=01; confirmation screen, duplicate. Here is the method:
Using the Combi-multidrop, 5 μL of Rh5 stock solution (200 nM prepared in assay buffer) was added to columns 1–24 of the 384-well assay plate (Greiner 384-well white, low binding plate, #784904, Bioone). The PerkinElmer Janus automated dispensing system was then employed to transfer, via the pin-tool, 2 × 100 nL of the compound stock DMSO solution from the compound master plate to the assay plate. The plate was sealed and incubated for 30 min at room temperature. Using a Combi-multidrop, 5 μL of hexa-histidine tagged basigin stock solution (80 nM prepared in assay buffer) was then added to columns 1–23 and 5 μL assay buffer to column 24 of the 384-well assay plate. The plate was sealed again and incubated for 30 min at room temperature. A solution of AlphaScreen donor and acceptor beads (20 μg/mL prepared in assay buffer) plus anti-Rh5 mAb solution (2 μg/mL prepared in assay buffer) was prepared in assay buffer under subdued lighting. Using the Combi-multidrop, 10 μL of this solution was added to every well of the assay plate under subdued lighting. The plate was sealed with foil (plate max) and incubated at room temperature for 1 h. The assay plate was then analysed on the PerkinElmer Envision 2103 Multilabel Plate Reader (Ex 680, Em 520–620 nm). […] Historically, PPIs are notoriously difficult to target with small molecules. To enhance the likelihood of identifying an inhibitor of the Rh5 - basigin interaction the primary screen was conducted at a compound concentration of 20 μM. A 20 μM screening concentration is considered high, when compared to the commonly used primary screen concentrations of approximately 1–10 μM. […] To do this, a two-phase hit confirmation and counterscreen process was undertaken (Fig. 1). […] Both assays were undertaken at 10 μM in duplicate. The counterscreen assay was conducted using AlphaScreen TruHits.

T1 sequence (Q8IFM5 24-526): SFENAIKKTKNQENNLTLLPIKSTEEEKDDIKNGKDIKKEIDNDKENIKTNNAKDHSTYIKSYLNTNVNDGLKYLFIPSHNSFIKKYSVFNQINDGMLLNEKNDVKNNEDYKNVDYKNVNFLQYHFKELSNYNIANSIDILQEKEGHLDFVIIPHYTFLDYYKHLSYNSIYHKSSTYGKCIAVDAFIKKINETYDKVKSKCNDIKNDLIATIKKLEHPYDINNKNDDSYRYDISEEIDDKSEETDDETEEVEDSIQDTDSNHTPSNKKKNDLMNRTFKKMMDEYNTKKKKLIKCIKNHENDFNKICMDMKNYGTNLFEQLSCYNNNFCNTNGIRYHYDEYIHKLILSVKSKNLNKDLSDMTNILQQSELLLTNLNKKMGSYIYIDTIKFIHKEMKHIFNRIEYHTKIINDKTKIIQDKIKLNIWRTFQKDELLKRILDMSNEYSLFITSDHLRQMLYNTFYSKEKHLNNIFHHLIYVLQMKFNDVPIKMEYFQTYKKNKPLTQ

As a reminder, the IC50 is the concentration that inhibits the measured activity by half. Usually EC50 stands for the concentration giving half of the maximal effect. High values mean weaker potency, low ones greater potency. The inhibition is the relative decrease from the control value, in per cent. A high value points to strong suppression. In data set [1], `O=C(Nc1cccc2c(=O)cc(-c3nnn[nH]3)oc12)c1ccc(OCCCCc2ccccc2)cc1` [pranlukast] came in with an IC50 of 12 µM. For the same compound, the EC50 was 28 µM in the data set with P. falciparum D10 and over 50 µM in the data set with HepG2 cells. The “solubility in the SPR running buffer” value in data set [2] is recorded as “limited solubility”. Besides, the “effect on Tm of DCLK1” value at DCLK1 (concentration up to 20 μM) was “did not have a significant impact on the Tm of DCLK1”; on DCLK1 (high concentration (>40 μM)) it was “markedly lower Tm”. Further, in data set [3], the inhibition at 10 µM is 69%.
